Where two headings read alike, the source gives them in different places.
Tests used:
CDK2/cyclin A = CDK2/cyclin A (Homo sapiens, UniProt P24941); assay: Kinase assay CDK2/cyclin A; format: biochemical; settings: Ki calculated (Cheng-Prusoff) from experimentally determined IC50 and Km,ATP; read-out: Kinase Inhibition Ki CDK2 - cyclin A
Outline: (§1)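 Radiometric assays measured transfer of radioactive phosphate from ATP onto polypeptide substrates, using 2-4 μg recombinant active enzyme in buffer typically containing 25 mM β-glycerophosphate, 20 mM MOPS, 5 mM EGTA, 1 mM DTT and 1 mM Na3VO3 at pH 7.4. Reactions were stopped on ice, filtered on P81 or GF/C plates and washed with orthophosphoric acid. Incorporated radioactivity was scintillation-counted.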

aurora A = target: T1, aurora A (Homo sapiens, UniProt O14965); assay: Kinase assay aurora A; format: biochemical; settings: Ki calculated (Cheng-Prusoff) from experimentally determined IC50 and Km,ATP; read-out: Kinase Inhibition Ki Aurora A
T1 sequence (O14965 1-403): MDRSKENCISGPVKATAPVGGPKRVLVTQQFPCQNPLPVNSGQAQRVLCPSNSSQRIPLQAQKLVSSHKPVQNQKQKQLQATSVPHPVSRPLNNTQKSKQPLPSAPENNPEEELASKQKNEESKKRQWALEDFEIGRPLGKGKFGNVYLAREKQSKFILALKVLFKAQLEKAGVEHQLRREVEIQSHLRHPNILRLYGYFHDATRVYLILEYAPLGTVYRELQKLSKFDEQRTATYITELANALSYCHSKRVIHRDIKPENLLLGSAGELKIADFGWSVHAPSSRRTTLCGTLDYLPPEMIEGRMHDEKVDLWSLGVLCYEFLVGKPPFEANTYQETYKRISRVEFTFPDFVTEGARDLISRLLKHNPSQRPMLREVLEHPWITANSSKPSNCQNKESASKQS
Outline: as §1

CDK7/cyclin H = CDK7/cyclin H (Homo sapiens, UniProt P50613); assay: Kinase assay CDK7/cyclin H; format: biochemical; settings: Ki calculated (Cheng-Prusoff) from experimentally determined IC50 and Km,ATP; read-out: Kinase Inhibition Ki CDK7 - cyclin H
CDK7/cyclin H, sequence (P50613 whole entry, species assumed): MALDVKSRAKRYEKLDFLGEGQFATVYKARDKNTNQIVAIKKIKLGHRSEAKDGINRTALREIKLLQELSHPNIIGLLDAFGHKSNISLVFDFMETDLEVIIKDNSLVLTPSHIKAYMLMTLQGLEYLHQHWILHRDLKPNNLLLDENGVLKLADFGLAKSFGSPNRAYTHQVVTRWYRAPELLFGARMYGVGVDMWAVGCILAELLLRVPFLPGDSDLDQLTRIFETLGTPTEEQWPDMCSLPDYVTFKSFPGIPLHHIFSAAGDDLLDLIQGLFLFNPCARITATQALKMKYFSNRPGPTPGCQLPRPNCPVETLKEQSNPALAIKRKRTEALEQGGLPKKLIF
CDK7/cyclin H, sequence (P51946 whole entry partner, species assumed): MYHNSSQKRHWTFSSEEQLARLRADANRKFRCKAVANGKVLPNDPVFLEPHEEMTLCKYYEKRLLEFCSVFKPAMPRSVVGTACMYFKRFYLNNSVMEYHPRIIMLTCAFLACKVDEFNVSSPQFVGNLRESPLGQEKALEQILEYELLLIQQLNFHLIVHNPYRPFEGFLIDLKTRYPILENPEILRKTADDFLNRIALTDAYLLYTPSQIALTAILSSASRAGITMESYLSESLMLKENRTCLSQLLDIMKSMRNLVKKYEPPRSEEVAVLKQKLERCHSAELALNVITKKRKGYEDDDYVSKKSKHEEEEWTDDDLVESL
Outline: (§2)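 Radiometric filter assays used recombinant kinases or complexes (2-4 μg) with appropriate polypeptide substrates in pH 7.4 β-glycerophosphate/MOPS buffer. Reactions were started with 15 mM MgCl2 and 100 μM ATP containing [γ-32P]-ATP and run at 30° C. Phosphate incorporated into substrate was counted by scintillation after washing.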

CDK4/cyclin D1 = CDK4/cyclin D1 (Homo sapiens, UniProt P11802); assay: Kinase assay CDK4/cyclin D1; format: biochemical; settings: Ki calculated (Cheng-Prusoff) from experimentally determined IC50 and Km,ATP; read-out: Kinase Inhibition Ki CDK4 - cyclin D1
CDK4/cyclin D1, sequence (P11802 whole entry, species assumed): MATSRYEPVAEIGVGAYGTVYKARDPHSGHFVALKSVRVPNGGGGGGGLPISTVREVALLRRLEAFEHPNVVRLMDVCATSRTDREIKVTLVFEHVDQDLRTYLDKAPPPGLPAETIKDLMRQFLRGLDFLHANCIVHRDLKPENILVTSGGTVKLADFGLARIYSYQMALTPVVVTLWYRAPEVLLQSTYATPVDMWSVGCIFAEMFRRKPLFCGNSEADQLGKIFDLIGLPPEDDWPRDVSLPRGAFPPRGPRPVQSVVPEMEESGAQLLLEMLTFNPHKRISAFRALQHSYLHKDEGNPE
CDK4/cyclin D1, sequence (P24385 whole entry partner, species assumed): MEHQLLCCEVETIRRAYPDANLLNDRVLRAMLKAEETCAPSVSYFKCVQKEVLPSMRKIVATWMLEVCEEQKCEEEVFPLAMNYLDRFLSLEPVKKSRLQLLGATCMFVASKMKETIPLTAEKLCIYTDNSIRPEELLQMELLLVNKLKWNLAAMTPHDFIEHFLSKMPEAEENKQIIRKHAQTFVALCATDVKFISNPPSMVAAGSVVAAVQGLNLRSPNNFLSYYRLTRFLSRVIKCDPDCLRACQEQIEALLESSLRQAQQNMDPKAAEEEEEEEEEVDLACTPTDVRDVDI
Outline: as §2

CDK2/cyclin E = CDK2/cyclin E (Homo sapiens, UniProt P24941); assay: Kinase assay CDK2/cyclin E; format: biochemical; settings: Ki calculated (Cheng-Prusoff) from experimentally determined IC50 and Km,ATP; read-out: Kinase Inhibition Ki CDK2 - cyclin E
Outline: as §1

CDK1/cyclin B = CDK1/cyclin B (Homo sapiens, UniProt P06493); assay: Kinase assay CDK1/cyclin B (radioactive phosphate incorporation); format: biochemical; settings: Ki calculated (Cheng-Prusoff) from experimentally determined IC50 and Km,ATP; read-out: Kinase Inhibition Ki CDK1 - cyclin B
CDK1/cyclin B, sequence (P06493 whole entry, species assumed): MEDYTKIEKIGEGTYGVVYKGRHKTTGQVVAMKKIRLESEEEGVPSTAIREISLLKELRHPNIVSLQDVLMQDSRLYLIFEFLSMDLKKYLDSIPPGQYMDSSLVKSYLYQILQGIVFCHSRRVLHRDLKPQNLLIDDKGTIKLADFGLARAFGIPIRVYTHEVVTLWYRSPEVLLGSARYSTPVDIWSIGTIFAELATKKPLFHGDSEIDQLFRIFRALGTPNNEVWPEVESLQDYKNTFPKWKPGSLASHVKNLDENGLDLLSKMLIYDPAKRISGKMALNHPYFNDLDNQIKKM
CDK1/cyclin B, sequence (P14635 whole entry partner, species assumed): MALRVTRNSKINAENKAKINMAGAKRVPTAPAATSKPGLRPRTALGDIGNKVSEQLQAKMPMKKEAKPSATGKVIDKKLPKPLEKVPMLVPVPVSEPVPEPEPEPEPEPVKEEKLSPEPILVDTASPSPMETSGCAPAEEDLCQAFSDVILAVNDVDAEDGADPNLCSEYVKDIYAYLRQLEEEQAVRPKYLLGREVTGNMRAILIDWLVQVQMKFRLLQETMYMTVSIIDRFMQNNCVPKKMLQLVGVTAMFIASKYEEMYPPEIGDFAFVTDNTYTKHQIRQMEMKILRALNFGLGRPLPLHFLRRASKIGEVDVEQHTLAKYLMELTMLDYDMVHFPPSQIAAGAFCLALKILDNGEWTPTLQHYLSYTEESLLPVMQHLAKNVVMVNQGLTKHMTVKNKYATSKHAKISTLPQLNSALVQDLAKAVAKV
Outline: as §1

PEPCK gene expression = PEPCK gene expression assay - qPCR in HEPG2 cells; format: cell-based; settings: Homo sapiens, HepG2, HEPG2, read-out: PEPCK gene expression, % of maximum stimulation
Protocol: PEPCK gene expression was studied in HEPG2 (hepatocarcinoma) cells, seeded in 6-well plate at […] per well. The cells were serum-starved for 20 hours before treatment with dexamethasone/cAMP (stimulator of PEPCK gene expression) in the presence or absence of insulin or GSK3 inhibitor example compounds. After 3 hours treatment the cells were harvested, lysed and RNA extracted using mini RNeasy spin columns (Quiagen). The primer set COD2063/COD2064 (350 bp) was used for the PEPCK gene. The one step RT-PCR was carried out using the Lightcycler-RNA Master SYBR Green 1 Kit. The qPCR analysis calculates the number of the PCR cycles required for the PCR product amplification to reach logarithmic phase. QPCR for a housekeeping gene—28S—was used for normalisation. PEPCK is a key enzyme in gluconeogenesis in the liver and it is known to be negatively regulated by insulin via inhibition of GSK3. The effect of example compounds on PEPCK gene expression was studied in HEPG2 cells treated with dexamethasone/cAMP (a positive regulator PEPCK gene expression) in the presence or absence of insulin or GSK3 inhibitors. Example compound inhibitors of GSK3 were efficient in the abolishment of dexamethasone/cAMP induced stimulation of PEPCK gene expression in HEPG2 cells.

| SMILES | Ki (CDK2/cyclin A) [µM] | Ki (aurora A) [µM] | Ki (CDK7/cyclin H) [µM] | Ki (CDK4/cyclin D1) [µM] | Ki (CDK2/cyclin E) [µM] | Ki (CDK1/cyclin B) [µM] | Emax (PEPCK gene expression; 0.1 μM + Dex/cAMP) [%] | Emax (PEPCK gene expression; 1 μM + Dex/cAMP) [%] | Emax (PEPCK gene expression; 10 μM + Dex/cAMP) [%] |
| --- | --- | --- | --- | --- | --- | --- | --- | --- | --- |
| CCNS(=O)(=O)c1cccc(Nc2nccc(-c3sc(=O)n(C)c3C)n2)c1 [Compound 62, 3-[4-(3,4-Dimethyl-2-oxo-2,3-dihydro-thiazol-5-yl)-pyrimidin-2-ylamino]-N-ethyl-benzenesulfonamide] | 0.61 | 0.41 | 1.1 | 0.33 | 0.35 | 0.43 |  |  |  |
| Cc1c(-c2ccnc(Nc3cc(Br)cc(C(F)(F)F)c3)n2)sc(=O)n1C [Compound 68, 5-[2-(3-Bromo-5-trifluoromethyl-phenylamino)-pyrimidin-4-yl]-3,4-dimethyl-3H-thiazol-2-one] |  |  |  |  |  |  |  |  | 60.7 ± 20 |
| CNc1cc(Nc2nccc(-c3sc(=O)n(C)c3C)n2)cc(C(F)(F)F)c1 [Compound 76, 3,4-Dimethyl-5-[2-(3-methylamino-5-trifluoromethyl-phenylamino)-pyrimidin-4-yl]-3H-thiazol-2-one] |  | 0.15 | 0.8 |  | 0.089 |  |  |  |  |

Second part, led by results:

| Ki (CDK2/cyclin A) [µM] | Ki (aurora A) [µM] | Ki (CDK7/cyclin H) [µM] | Ki (CDK4/cyclin D1) [µM] | Ki (CDK2/cyclin E) [µM] | Ki (CDK1/cyclin B) [µM] | SMILES | Emax (PEPCK gene expression; 0.1 μM + Dex/cAMP) [%] | Emax (PEPCK gene expression; 1 μM + Dex/cAMP) [%] | Emax (PEPCK gene expression; 10 μM + Dex/cAMP) [%] |
| --- | --- | --- | --- | --- | --- | --- | --- | --- | --- |
|  | 0.17 | 3.9 |  |  | 0.87 | CC(=O)Nc1cc(Nc2nccc(-c3sc(=O)n(C)c3C)n2)cc(C(F)(F)F)c1 [Compound 64, N-{3-[4-(3,4-Dimethyl-2-oxo-2,3-dihydro-thiazol-5-yl)-pyrimidin-2-ylamino]-5-trifluoromethyl-phenyl}-acetamide] | 11.4 ± 3.2 |  |  |
| 1.3 | 0.39 | 0.36 | 1.4 |  |  | COCCNS(=O)(=O)c1cccc(Nc2nccc(-c3sc(=O)n(C)c3C)n2)c1 [Compound 67, 3-[4-(3,4-Dimethyl-2-oxo-2,3-dihydro-thiazol-5-yl)-pyrimidin-2-ylamino]-N-(2-methoxy-ethyl)-benzenesulfonamide] |  | 101 ± 38.2 | 17.4 ± 0.97 |
| 0.41 | 0.25 | 0.37 | 0.15 | 0.38 | 0.62 | Cc1c(-c2ccnc(Nc3cccc(S(=O)(=O)NCCO)c3)n2)sc(=O)n1C [Compound 75, 3-[4-(3,4-Dimethyl-2-oxo-2,3-dihydro-thiazol-5-yl)-pyrimidin-2-ylamino]-N-(2-hydroxy-ethyl)-benzenesulfonamide] |  | 37.2 ± 0.37 | 17.1 ± 0.68 |

Source: patent US7902361B2, “Pyrimidin-4-yl-3, 4-thione compounds and their use in therapy” (Cyclacel Limited, priority 2003, dated 2011)
